We go through 27 molecules from patent US11667602B2, “Compounds and their use” (AstraZeneca AB, priority 2020, dated 2023).

The assay deals with T1, human RXFP1 (Homo sapiens, UniProt Q9HBX9).
T1 sequence (Q9HBX9 1-757): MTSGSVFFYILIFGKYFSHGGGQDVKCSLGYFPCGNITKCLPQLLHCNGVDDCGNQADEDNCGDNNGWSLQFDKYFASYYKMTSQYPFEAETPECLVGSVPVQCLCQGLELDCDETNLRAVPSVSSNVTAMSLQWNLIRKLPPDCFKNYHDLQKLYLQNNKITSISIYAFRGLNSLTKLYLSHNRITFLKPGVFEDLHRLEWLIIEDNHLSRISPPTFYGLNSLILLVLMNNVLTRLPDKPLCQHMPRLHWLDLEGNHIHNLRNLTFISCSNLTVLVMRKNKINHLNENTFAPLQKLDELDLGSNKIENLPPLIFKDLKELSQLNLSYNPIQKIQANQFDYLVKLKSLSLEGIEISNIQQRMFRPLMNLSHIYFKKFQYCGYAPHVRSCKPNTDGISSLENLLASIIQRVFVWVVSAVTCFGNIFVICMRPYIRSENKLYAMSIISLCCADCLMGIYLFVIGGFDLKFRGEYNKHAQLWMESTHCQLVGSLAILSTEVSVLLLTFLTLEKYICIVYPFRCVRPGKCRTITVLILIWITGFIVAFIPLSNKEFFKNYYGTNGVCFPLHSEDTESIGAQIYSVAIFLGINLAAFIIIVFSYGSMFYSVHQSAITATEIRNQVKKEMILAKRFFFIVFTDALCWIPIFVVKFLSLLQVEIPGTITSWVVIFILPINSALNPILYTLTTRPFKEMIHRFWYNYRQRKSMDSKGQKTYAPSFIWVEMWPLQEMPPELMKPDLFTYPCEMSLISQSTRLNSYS
Description: RXFP1 Hu cAMP (Test A). The assay is classed as cell-based. The note with it: RXFP1 Hu cAMP; for EC50: read-out: Test A EC50. Set-up: expressed in transfected cells; host or cells: Jump-In T-REx CHO-K1 cells (ThermoFisher), induced with 10 ng/ml doxycycline for 24 h. An outline of the steps:
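Competitive HTRF cAMP readout (2 h, room temperature) in CHO-K1 cells stably expressing human RXFP1, induced with 10 ng/ml doxycycline for 24 h; IBMX 0.5 mM final.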

As to `COc1cc(F)c(-c2ccc(CCS(N)(=O)=O)cc2)cc1C(=O)N[C@H]1[C@H]2CC[C@H](C2)[C@H]1C(=O)Nc1cccc(S(=O)(=O)C(F)(F)F)c1` (single isomer, unassigned) [Example 327], the EC50 is greater than 40000 nM.
Regarding `COc1cc(C#N)c(O[C@H]2CC[C@@](C)(C(=O)O)CC2)cc1C(=O)N[C@@H]1[C@H]2CC[C@H](C2)[C@@H]1C(=O)NCCCF` [Example 135], the “Test A Sinf” value was 76%.
Consider `COc1cc(F)c(O[C@H]2CC[C@@](C)(C(=O)O)CC2)cc1C(=O)N[C@@H]1COC[C@@H]1C(=O)Nc1ccc(F)c(S(F)(F)(F)(F)F)c1` (racemic) [Example 344], for which the “Test A Sinf” value is reported as 93% and the half-maximal effective concentration (EC50) is 34 nM.
Taken in the same sequence, the figures for `COc1cc(C#N)c(O[C@H]2CC[C@@](C)(C(=O)O)CC2)cc1C(=O)N[C@@H]1[C@H]2CC[C@H](C2)[C@@H]1C(=O)NC[C@@H](F)c1ccccc1` [Example 131] were 99% and 84 nM.
The like results for `COc1cc(C#N)c(O[C@H]2CC[C@@](C)(C(=O)O)CC2)cc1C(=O)Nc1cc(C)ccc1C(=O)NCC1(C)CC1` [Example 174] were, in that order, 132% and 110 nM.
Taken in the same sequence, the figures for `COc1cc(F)c(O[C@H]2CC[C@@](CO)(C(=O)O)CC2)cc1C(=O)N[C@@H]1C[C@@H](OC)C[C@@H]1C(=O)NCC(C)(C)C` (racemic) [Example 338] were 104% and 4100 nM.
Turning to `COc1cc(F)c(-c2ncc(C(=O)O)s2)cc1C(=O)N[C@H]1[C@@H](C(=O)Nc2cccc(S(=O)(=O)C(F)(F)F)c2)[C@@H]2C=C[C@H]1C2` (racemic) [Example 287], the “Test A Sinf” value came to 111% and the EC50 turned out to be 570 nM.
Consider `COc1cc(F)c(O[C@H]2CC[C@](C)(C(=O)O)CC2)cc1C(=O)NC1[C@H]2CC[C@H](C2)[C@@H]1C(=O)Nc1cccc(S(=O)(=O)C(F)(F)F)c1` (stereo partly drawn) [Example 445], for which the “Test A Sinf” value worked out at 101%.
In the case of `COc1ccc(CCC(=O)O)cc1C(=O)N[C@H]1[C@@H](C(=O)Nc2cccc(S(=O)(=O)C(F)(F)F)c2)[C@@H]2C=C[C@H]1C2` (racemic) [Example 218, rac-3-(4-Methoxy-3-(((1R,2R,3S,4S)-3-((3-((trifluoromethyl)sulfonyl)phenyl)carbamoyl)bicyclo[2.2.1]hept-5-en-2-yl)carbamoyl)phenyl)propanoic acid], the EC50 is greater than 40000 nM.
With `COc1cc(F)c(O[C@H]2CC[C@@](C)(C(=O)O)CC2)cc1C(=O)N[C@@H]1[C@H]2CC[C@H](C2)[C@@H]1C(=O)N[C@H](C)C(F)(F)F` [Example 597], the “Test A Sinf” value came out at 106% and the EC50 came to 400 nM.
The like results for `COc1cc(F)c(OCc2cccc(CC(=O)O)c2)cc1C(=O)N[C@H]1[C@@H](C(=O)Nc2cccc(S(=O)(=O)C(F)(F)F)c2)[C@@H]2C=C[C@H]1C2` (racemic) [Example 453] were, in that order, 155% and 2000 nM.
For `O=C(O)c1ccc(-c2cc(C(=O)N[C@H]3[C@@H](C(=O)Nc4cccc(S(=O)(=O)C(F)(F)F)c4)[C@@H]4C=C[C@H]3C4)c(F)cc2F)cc1` (racemic) [Example 306, rac-2′,4′-Difluoro-5′-(((1R,2R,3S,4S)-3-((3-((trifluoromethyl)sulfonyl)phenyl)carbamoyl)bicyclo[2.2.1]hept-5-en-2-yl)carbamoyl)-[1,1′-biphenyl]-4-carboxylic acid], the “Test A Sinf” value came out at 73%.
As to `COc1cc(F)c(O[C@H]2CC[C@@](C)(C(=O)O)CC2)cc1C(=O)NC1COCCC1C(=O)Nc1cccc(S(=O)(=O)C(F)(F)F)c1` (single isomer, unassigned) [Example 558, (1R,4s)-4-(2-Fluoro-4-methoxy-5-(((3S*,4S*)-4-((3-((trifluoromethyl)sulfonyl)phenyl)carbamoyl)tetrahydro-2H-pyran-3-yl)carbamoyl)phenoxy)-1-methylcyclohexane-1-carboxylic acid], the EC50 is greater than 40000 nM.
Turning to `CCC(CC)CNC(=O)c1ccc(C)cc1NC(=O)c1cc(O[C@H]2CC[C@@](C)(C(=O)O)CC2)c(C#N)cc1OC` [Example 167], the “Test A Sinf” value came out at 147% and the EC50 amounted to 120 nM.
For the molecule `COc1cc(F)c(-c2ccc(C(=O)O)cc2)cc1C(=O)N[C@H]1[C@@H](C(=O)Nc2cc(F)cc(C#N)c2)[C@@H]2C=C[C@H]1C2` (racemic) [Example 310], the EC50 was greater than 40000 nM.
For `COc1cc(F)c(O[C@H]2CC[C@@](C)(C(=O)O)CC2)cc1C(=O)N[C@@H]1[C@H]2CC[C@H](C2)[C@@H]1C(=O)NCC1(OC)CCC1` [Example 593, (1S,4s)-4-(2-Fluoro-4-methoxy-5-(((1S,2R,3S,4R)-3-(((1-methoxycyclobutyl)methyl)carbamoyl)bicyclo[2.2.1]heptan-2-yl)carbamoyl)phenoxy)-1-methylcyclohexane-1-carboxylic acid], the “Test A Sinf” value is given as 118% and the EC50 worked out at 520 nM.
As for `COc1cc(F)c(OC2CCC(C)(C(=O)O)CC2)cc1C(=O)NC1CC(OC)CC1C(=O)Nc1cccc(S(=O)(=O)C(F)(F)F)c1` (single isomer, unassigned) [Example 522, (1R,4s)-4-(2-Fluoro-4-methoxy-5-(((1S*,2R*,4S*)-4-methoxy-2-((3-((trifluoromethyl)sulfonyl)phenyl)carbamoyl)cyclopentyl)carbamoyl)phenoxy)-1-methylcyclohexane-1-carboxylic acid], the EC50 was greater than 40000 nM.
Take `COc1cc(F)c(O[C@H]2CC[C@@](C)(C(=O)O)CC2)cc1C(=O)N[C@@H]1[C@H]2CC[C@H](C2)[C@@H]1C(=O)NCC(C)(C)CO` [Example 612]: the “Test A Sinf” value was found to be 119%.
Consider `COc1cc(F)c(-c2cccc(C(=O)O)c2)cc1C(=O)N[C@@H]1CCC[C@@H]1C(=O)Nc1cccc(S(=O)(=O)C(F)(F)F)c1` (racemic) [Example 300], for which the “Test A Sinf” value worked out at 78% and the EC50 came to 3900 nM.
In the case of `COc1cc(F)c(O[C@H]2CC[C@@H](C(=O)O)CC2)cc1C(=O)N[C@H]1[C@@H](C(=O)Nc2ccc(F)c(S(=O)(=O)C(F)(F)F)c2)[C@@H]2C=C[C@H]1C2` [Example 489], the “Test A Sinf” value was determined as 115% and the EC50 stood at 12 nM.
Take `COc1cc(F)c(O[C@@H]2C[C@@H]3[C@H](C2)[C@H]3C(=O)O)cc1C(=O)N[C@@H]1[C@H]2CC[C@H](C2)[C@@H]1C(=O)NCC1(C)CCC1` (racemic) [Example 425, (1RS,3SR,5SR,6RS)-3-(2-Fluoro-4-methoxy-5-(((1S,2R,3S,4R)-3-(((1-methylcyclobutyl)methyl)carbamoyl)bicyclo[2.2.1]heptan-2-yl)carbamoyl)phenoxy)bicyclo[3.1.0]hexane-6-carboxylic acid]: the “Test A Sinf” value was 78%.
Consider “(1R,4s)-4-(2-Cyano-4-methoxy-5-(((1S*,2R*)-2-(((1-methylcyclobutyl)methyl)carbamoyl)cyclobutyl)carbamoyl)phenoxy)-1-methylcyclohexane-1-carboxylic acid [Example 573]”, for which the “Test A Sinf” value is recorded as 94%.
In the case of `COc1cc(F)c(O[C@H]2CC[C@@](OC)(C(=O)O)CC2)cc1C(=O)N[C@@H]1[C@H]2CC[C@H](C2)[C@@H]1C(=O)NCC1(C)CCC1` [Example 506, (1R,4r)-4-(2-Fluoro-4-methoxy-5-(((1S,2R,3S,4R)-3-(((1-methylcyclobutyl)methyl)carbamoyl)bicyclo[2.2.1]heptan-2-yl)carbamoyl)phenoxy)-1-methoxycyclohexane-1-carboxylic acid], the “Test A Sinf” value is recorded as 98% and the EC50 stood at 320 nM.
In the case of `COc1cc(C#N)c(O[C@H]2CC[C@@](C)(C(=O)O)CC2)cc1C(=O)N[C@@H]1[C@H]2CC[C@H](C2)[C@@H]1C(=O)NC[C@@H](C)c1ccccc1` [Example 125], the “Test A Sinf” value came to 116% and the EC50 stood at 16 nM.
For the molecule `COc1cc(F)c(O[C@@H]2CC[C@H](C(=O)O)OC2)cc1C(=O)NC1[C@H]2CC[C@H](C2)[C@@H]1C(=O)Nc1cccc(S(=O)(=O)C(F)(F)F)c1` (mixture of isomers) [Example 442], the “Test A Sinf” value is given as 103% and the EC50 turned out to be 580 nM.
As to `COc1cc(F)c(OC2CCC(CO)(C(=O)O)CC2)cc1C(=O)NC1CC(OC)CC1C(=O)NCC1(C)CCC1` (single isomer, unassigned) [Example 550, (1R,4s)-4-(2-Fluoro-4-methoxy-5-(((1S*,2R*,4R*)-4-methoxy-2-(((1-methylcyclobutyl)methyl)carbamoyl)cyclopentyl)carbamoyl)phenoxy)-1-(hydroxymethyl)cyclohexane-1-carboxylic acid], the concentration for a half-maximal effect (EC50) was greater than 40000 nM.
Take `COc1cc(F)c(O[C@H]2CC[C@@](C)(C(=O)O)CC2)cc1C(=O)N[C@@H]1CC[C@@H]1C(=O)Nc1ccc(F)c(S(F)(F)(F)(F)F)c1` (racemic) [Example 347]: the “Test A Sinf” value amounted to 115% and the EC50 was found to be 6.4 nM.

The term EC50 denotes the concentration that produces a half-maximal response.
